Assay results taken from PubChem BioAssay (NCI).
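Cultured in 96-well plates, cells were exposed to test compound for 48 hours across five concentrations. GI50 is the concentration that inhibits growth by half. TGI denotes the concentration required for complete inhibition of growth.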

Tests used:
Experiment in all cases: growth of human tumour cells (NCI), 48 h
MOLT-4 leukemia = tested on: MOLT-4 leukemia
COLO 205 colon = tested on: COLO 205 colon
HOP-62 NSCLC = tested on: HOP-62 NSCLC
SW-620 colon = tested on: SW-620 colon
SNB-19 CNS = tested on: SNB-19 CNS
HCC-2998 colon = tested on: HCC-2998 colon
ACHN renal = tested on: ACHN renal
SN12C renal = tested on: SN12C renal
EKVX NSCLC = tested on: EKVX NSCLC
HOP-92 NSCLC = tested on: HOP-92 NSCLC

SMILES	TGI (MOLT-4 leukemia)	TGI (COLO 205 colon)	TGI (HOP-62 NSCLC)	TGI (SW-620 colon)	TGI (SNB-19 CNS)	TGI (HCC-2998 colon)	TGI (ACHN renal)	TGI (SN12C renal)	TGI (EKVX NSCLC)	TGI (HOP-92 NSCLC)	GI50 (MOLT-4 leukemia)	GI50 (HCC-2998 colon)	GI50 (COLO 205 colon)	GI50 (ACHN renal)	GI50 (SN12C renal)	GI50 (HOP-62 NSCLC)	GI50 (SW-620 colon)	GI50 (EKVX NSCLC)	GI50 (SNB-19 CNS)	GI50 (HOP-92 NSCLC)
N#Cc1c(NC(=S)NC(=O)c2ccccc2)nc2c(c1-c1ccccc1)CCCC2	> 100 µM	> 100 µM	> 100 µM	> 100 µM	> 100 µM	–	–	–	–	–	–	–	–	–	–	–	–	–	–	–
CCC(C)C(=O)c1c(O)c(C/C=C(\C)CCC=C(C)C)c(O)c2c(C(O)CC)cc(=O)oc12 (stereo not drawn)	3.94 µM	7.27 µM	4.08 µM	14 µM	16.2 µM	2.09 µM	8.38 µM	8.26 µM	10.1 µM	5.47 µM	–	–	–	–	–	–	–	–	–	–
Brc1ccccc1-c1ncc(-c2ccccc2)o1	49.6 µM	39.5 µM	96.8 µM	> 100 µM	> 100 µM	80.4 µM	> 100 µM	> 100 µM	> 100 µM	46.3 µM	–	–	–	–	–	–	–	–	–	–
O=[N+]([O-])c1cn[n+]([O-])c2ccccc12	–	26.5 µM	26.2 µM	4.91 µM	25.2 µM	3.44 µM	3.83 µM	21.5 µM	26.1 µM	28.4 µM	–	–	–	–	–	–	–	–	–	–
CC[n+]1c(/C=C/c2ccc(N(CCCl)CCCl)cc2)ccc2cc(NC(=O)/C=C/c3ccccc3)ccc21	1.69 µM	0.222 µM	1.74 µM	0.67 µM	1.67 µM	1.37 µM	> 56.6 µM	1.52 µM	4.76 µM	1.07 µM	–	–	–	–	–	–	–	–	–	–
COc1cc(C2c3cc4c(cc3[C@@H](Nc3cccc(C(C)=O)c3)C3COC(=O)[C@H]23)OCO4)cc(OC)c1O (stereo partly drawn)	0.129 µM	5.05 µM	0.538 µM	> 38.2 µM	4.79 µM	3.23 µM	–	–	> 22.3 µM	14.8 µM	–	–	–	–	–	–	–	–	–	–
Cn1c(-c2ccc(/C=N\N3CCN(/N=C/c4ccc(-c5c[n+]6ccccc6n5C)cc4)CC3)cc2)c[n+]2ccccc12	> 100 µM	> 100 µM	–	> 100 µM	> 100 µM	–	> 100 µM	> 100 µM	> 100 µM	84.6 µM	–	–	–	–	–	–	–	–	–	–
COc1ccc(-c2cc(N3CCN(c4ccccc4)CC3)c(C#N)c(=O)o2)cc1	> 100 µM	> 100 µM	–	> 100 µM	49.8 µM	> 100 µM	> 100 µM	> 100 µM	> 100 µM	> 100 µM	–	–	–	–	–	–	–	–	–	–
COc1ccc(NC(=O)/C(=C/c2ccc(N(CCC#N)CCC#N)cc2)NC(=O)c2cc([N+](=O)[O-])ccc2Cl)cc1	> 100 µM	> 100 µM	> 100 µM	> 100 µM	> 100 µM	> 100 µM	59.5 µM	> 100 µM	> 100 µM	> 100 µM	–	–	–	–	–	–	–	–	–	–
COc1ccc(NC(=O)/C(CC2=Nc3ccc([N+](=O)[O-])cc3NC2O)=N\NC(=O)C[N+](C)(C)C)c(OC)c1 (stereo not drawn)	> 100 µM	> 100 µM	> 100 µM	> 100 µM	> 100 µM	> 100 µM	> 100 µM	> 100 µM	> 100 µM	> 100 µM	–	–	–	–	–	–	–	–	–	–
NCc1ccc(C(=O)O)cc1	> 100 µM	–	> 100 µM	> 100 µM	> 100 µM	> 100 µM	> 100 µM	> 100 µM	> 100 µM	> 100 µM	–	–	–	–	–	–	–	–	–	–
Cc1nc2ccccc2c(=O)[nH]1	> 100 µM	> 100 µM	> 100 µM	> 100 µM	> 100 µM	> 100 µM	> 100 µM	> 100 µM	> 100 µM	> 100 µM	–	–	–	–	–	–	–	–	–	–
ClCc1c(Cl)c(Cl)c(Cl)c(CCl)c1Cl	5.86 µM	3.33 µM	4.25 µM	3.12 µM	4.23 µM	3.45 µM	3 µM	4.03 µM	4.15 µM	3.15 µM	2.41 µM	1.78 µM	1.83 µM	1.64 µM	1.91 µM	2.15 µM	1.71 µM	1.81 µM	1.94 µM	1.55 µM
NCc1ccccc1C1CSCSC1	> 100 µM	–	–	> 100 µM	–	–	> 100 µM	> 100 µM	–	–	–	–	–	–	–	–	–	–	–	–
Cc1ccc(S(N)(=O)=O)cc1	> 1000 µM	> 1000 µM	> 1000 µM	> 1000 µM	> 1000 µM	> 1000 µM	> 1000 µM	> 1000 µM	> 1000 µM	> 1000 µM	–	–	–	–	–	–	–	–	–	–
CCO/N=[N+](\[O-])N(CC)CC	> 100 µM	–	> 100 µM	> 100 µM	> 100 µM	> 100 µM	> 100 µM	> 100 µM	> 100 µM	> 100 µM	–	–	–	–	–	–	–	–	–	–
CC(C)C[P+](c1ccccc1)(c1ccccc1)c1ccccc1	> 100 µM	15.7 µM	> 100 µM	> 100 µM	> 100 µM	> 100 µM	> 100 µM	> 100 µM	30 µM	26.3 µM	–	–	–	–	–	–	–	–	–	–
CC(C)(Br)C1(O)CCCN1C(=O)c1ccccc1 (stereo not drawn)	> 100 µM	> 100 µM	–	> 100 µM	> 100 µM	> 100 µM	> 100 µM	> 100 µM	> 100 µM	> 100 µM	–	–	–	–	–	–	–	–	–	–
CCOC(=O)/C=C(\C)c1ccc(OC)cc1	–	> 100 µM	–	> 100 µM	> 100 µM	> 100 µM	> 100 µM	> 100 µM	> 100 µM	> 100 µM	–	–	–	–	–	–	–	–	–	–
